Assay results from patent publication US8802597B2, “Herbicidal pyrimidines” (E I du Pont de Nemours and Company, priority 2003, dated 2014).
Where two headings read alike, the source gives them in different places.

What was measured:
Type in all cases: in vivo
[1] = system: barnyardgrass (Echinochloa crus-galli); assay: Test B pre/postemergence; conditions: Echinochloa crus-galli; for pest or weed control at 125 g/ha: 125 g ai/ha; for pest or weed control at 500 g/ha: 500 g ai/ha
Outline: (§1)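 Visual injury scored 0 (no effect) to 100 (complete control) versus untreated controls after 13 to 15 days in greenhouse. Treatments were pre- or postemergence sprays of surfactant-containing solvent formulations; postemergence plants at 1- to 4-leaf stage, 2 to 18 cm.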

[2] = system: pigweed (Amaranthus retroflexus); assay: Test B pre/postemergence; conditions: Amaranthus retroflexus; for pest or weed control at 125 g/ha: 125 g ai/ha; for pest or weed control at 500 g/ha: 500 g ai/ha
Outline: as §1

[3] = system: wheat (Triticum aestivum); assay: Test B pre/postemergence; conditions: Triticum aestivum; for plant injury at 125 g/ha: 125 g ai/ha; for plant injury at 500 g/ha: 500 g ai/ha
Outline: as §1

[4] = system: lambsquarters (Chenopodium album); assay: Test B pre/postemergence; conditions: Chenopodium album; for pest or weed control at 125 g/ha: 125 g ai/ha; for pest or weed control at 500 g/ha: 500 g ai/ha
Outline: as §1

[5] = system: cocklebur (Xanthium strumarium); assay: Test B pre/postemergence; conditions: Xanthium strumarium; for pest or weed control at 125 g/ha: 125 g ai/ha; for pest or weed control at 500 g/ha: 500 g ai/ha
Outline: as §1

[6] = system: giant foxtail (Setaria faberii); assay: Test B pre/postemergence; conditions: Setaria faberi; for pest or weed control at 125 g/ha: 125 g ai/ha; for pest or weed control at 500 g/ha: 500 g ai/ha
Outline: as §1

[7] = system: crabgrass (Digitaria sanguinalis); assay: Test B pre/postemergence; conditions: Digitaria sanguinalis; for pest or weed control at 125 g/ha: 125 g ai/ha; for pest or weed control at 500 g/ha: 500 g ai/ha
Outline: as §1

[8] = system: corn (Zea mays); assay: Test B pre/postemergence; conditions: Zea mays
Outline: as §1

[9] = system: velvetleaf (Abutilon theophrasti); assay: Test B pre/postemergence; conditions: Abutilon theophrasti; for pest or weed control at 125 g/ha: 125 g ai/ha; for pest or weed control at 500 g/ha: 500 g ai/ha
Outline: as §1

[10] = system: morningglory (Ipomoea coccinea); assay: Test B pre/postemergence; conditions: Ipomoea; for pest or weed control at 125 g/ha: 125 g ai/ha; for pest or weed control at 500 g/ha: 500 g ai/ha
Outline: as §1

[11] = system: Surinam grass (Brachiaria decumbens); assay: Test B pre/postemergence; conditions: Urochloa decumbens; for pest or weed control at 125 g/ha: 125 g ai/ha; for pest or weed control at 500 g/ha: 500 g ai/ha
Outline: as §1

[12] = system: blackgrass (Alopecurus myosuroides); assay: Test B postemergence; conditions: Alopecurus myosuroides, post-emergence
Outline: as §1

[13] = system: wild oat (Avena fatua); assay: Test B postemergence; conditions: Avena fatua, post-emergence
Outline: as §1

[14] = system: barnyardgrass (Echinochloa crus-galli); assay: Test B flooded paddy test; conditions: Echinochloa crus-galli, Flood, 1000 g ai/ha; scale 0 (no effect) to 100 (complete control); read-out: Plant response rating, Barnyardgrass
Outline: (§2)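 Visual injury scoring (0 = no effect, 100 = complete control) versus controls made 13 to 15 days after treatment in the greenhouse. Test species were grown in flooded paddy to the 2-leaf stage: rice, barnyardgrass, umbrella sedge, duck salad.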

[15] = system: rice (Oryza sativa); assay: Test B flooded paddy test; conditions: Oryza sativa, Flood, 1000 g ai/ha; scale 0 to 100; read-out: Plant response rating, Rice
Outline: as §2

[16] = system: umbrella sedge (Cyperus difformis); assay: Test B flooded paddy test; conditions: Cyperus difformis, Flood, 1000 g ai/ha; scale 0 to 100; read-out: Plant response rating, Sedge, Umbrella
Outline: as §2

[17] = system: duck salad (Heteranthera limosa); assay: Test B flooded paddy test; conditions: Heteranthera limosa, Flood, 1000 g ai/ha; scale 0 to 100; read-out: Plant response rating, Ducksalad
Outline: as §2

[18] = pre-emergence, Preemergence, scale 0 to 100 (0 no effect, 100 complete control), read-out: Plant response rating, Wheat

COC(=O)c1nc(C2CC2)nc(NO)c1Br [Compound 35]
pest or weed control at 125 g/ha ([1]; post-emergence, Postemergence, scale 0 to 100 (0 no effect, 100 complete control), read-out: Barnyardgrass plant response rating): 40% | pest or weed control at 500 g/ha ([1]; post-emergence, Postemergence, scale 0 to 100, read-out: Plant response rating, Barnyardgrass): 90% | pest or weed control at 125 g/ha ([1]; pre-emergence, Preemergence, scale 0 to 100 (0 no effect, 100 complete control), read-out: Plant response rating, Barnyardgrass): 10% | pest or weed control at 500 g/ha ([1]; pre-emergence, Preemergence, scale 0 to 100 (0 no effect, 100 complete control), read-out: Barnyardgrass plant response rating): 80% | pest or weed control at 125 g/ha ([2]; post-emergence, Postemergence, scale 0 to 100 (0 no effect, 100 complete control), read-out: Pigweed plant response rating): 70% | pest or weed control at 500 g/ha ([2]; post-emergence, Postemergence, scale 0 to 100, read-out: Plant response rating, Pigweed): 100% | pest or weed control at 125 g/ha ([2]; pre-emergence, Preemergence, scale 0 to 100 (0 no effect, 100 complete control), read-out: Plant response rating, Pigweed): 80% | pest or weed control at 500 g/ha ([2]; pre-emergence, Preemergence, scale 0 to 100 (0 no effect, 100 complete control), read-out: Pigweed plant response rating): 100% | plant injury at 125 g/ha ([3]; post-emergence, Postemergence, scale 0 to 100 (0 no effect, 100 complete control), read-out: Wheat plant response rating): 20% | plant injury at 500 g/ha ([3]; post-emergence, Postemergence, scale 0 to 100, read-out: Plant response rating, Wheat): 60% | plant injury at 125 g/ha [3, 18]: 20% | plant injury at 500 g/ha [3, 18]: 50% | pest or weed control at 125 g/ha ([4]; post-emergence, Postemergence, scale 0 to 100 (0 no effect, 100 complete control), read-out: Lambsquarters plant response rating): 90% | pest or weed control at 500 g/ha ([4]; post-emergence, Postemergence, scale 0 to 100, read-out: Plant response rating, Lambsquarters): 100% | pest or weed control at 125 g/ha ([4]; pre-emergence, Preemergence, scale 0 to 100 (0 no effect, 100 complete control), read-out: Plant response rating, Lambsquarters): 90% | pest or weed control at 500 g/ha ([4]; pre-emergence, Preemergence, scale 0 to 100 (0 no effect, 100 complete control), read-out: Lambsquarters plant response rating): 100% | pest or weed control at 125 g/ha ([5]; post-emergence, Postemergence, scale 0 to 100 (0 no effect, 100 complete control), read-out: Cocklebur plant response rating): 30% | pest or weed control at 500 g/ha ([5]; post-emergence, Postemergence, scale 0 to 100, read-out: Plant response rating, Cocklebur): 100% | pest or weed control at 125 g/ha ([5]; pre-emergence, Preemergence, scale 0 to 100 (0 no effect, 100 complete control), read-out: Plant response rating, Cocklebur): 60% | pest or weed control at 500 g/ha ([5]; pre-emergence, Preemergence, scale 0 to 100 (0 no effect, 100 complete control), read-out: Cocklebur plant response rating): 90% | pest or weed control at 125 g/ha ([6]; post-emergence, Postemergence, scale 0 to 100 (0 no effect, 100 complete control), read-out: Foxtail, Giant plant response rating): 10% | pest or weed control at 500 g/ha ([6]; post-emergence, Postemergence, scale 0 to 100, read-out: Plant response rating, Foxtail, Giant): 60% | pest or weed control at 125 g/ha ([6]; pre-emergence, Preemergence, scale 0 to 100 (0 no effect, 100 complete control), read-out: Plant response rating, Foxtail, Giant): 0% | pest or weed control at 500 g/ha ([6]; pre-emergence, Preemergence, scale 0 to 100 (0 no effect, 100 complete control), read-out: Foxtail, Giant plant response rating): 70% | pest or weed control at 125 g/ha ([7]; post-emergence, Postemergence, scale 0 to 100 (0 no effect, 100 complete control), read-out: Crabgrass plant response rating): 20% | pest or weed control at 500 g/ha ([7]; post-emergence, Postemergence, scale 0 to 100, read-out: Plant response rating, Crabgrass): 50% | pest or weed control at 125 g/ha ([7]; pre-emergence, Preemergence, scale 0 to 100 (0 no effect, 100 complete control), read-out: Plant response rating, Crabgrass): 30% | pest or weed control at 500 g/ha ([7]; pre-emergence, Preemergence, scale 0 to 100 (0 no effect, 100 complete control), read-out: Crabgrass plant response rating): 80% | plant injury at 125 g/ha ([8]; post-emergence, Postemergence, 125 g ai/ha, scale 0 to 100 (0 no effect, 100 complete control), read-out: Corn plant response rating): 0% | Corn plant response rating (crop injury, 0 = no effect, 100 = complete kill) at 500 g/ha ([8]; post-emergence, Postemergence, 500 g ai/ha, scale 0 to 100): 60% | Corn plant response rating (crop injury, 0 = no effect, 100 = complete kill) at 125 g/ha ([8]; pre-emergence, Preemergence, 125 g ai/ha, scale 0 to 100 (0 no effect, 100 complete control)): 0% | plant injury at 500 g/ha ([8]; pre-emergence, Preemergence, 500 g ai/ha, scale 0 to 100 (0 no effect, 100 complete control), read-out: Corn plant response rating): 50% | pest or weed control at 125 g/ha ([9]; post-emergence, Postemergence, scale 0 to 100 (0 no effect, 100 complete control), read-out: Velvetleaf plant response rating): 50% | pest or weed control at 500 g/ha ([9]; post-emergence, Postemergence, scale 0 to 100, read-out: Plant response rating, Velvetleaf): 90% | pest or weed control at 125 g/ha ([9]; pre-emergence, Preemergence, scale 0 to 100 (0 no effect, 100 complete control), read-out: Plant response rating, Velvetleaf): 70% | pest or weed control at 500 g/ha ([9]; pre-emergence, Preemergence, scale 0 to 100 (0 no effect, 100 complete control), read-out: Velvetleaf plant response rating): 90% | pest or weed control at 125 g/ha ([10]; post-emergence, Postemergence, scale 0 to 100 (0 no effect, 100 complete control), read-out: Morningglory plant response rating): 70% | pest or weed control at 500 g/ha ([10]; post-emergence, Postemergence, scale 0 to 100, read-out: Plant response rating, Morningglory): 100% | pest or weed control at 125 g/ha ([10]; pre-emergence, Preemergence, scale 0 to 100 (0 no effect, 100 complete control), read-out: Plant response rating, Morningglory): 70% | pest or weed control at 500 g/ha ([10]; pre-emergence, Preemergence, scale 0 to 100 (0 no effect, 100 complete control), read-out: Morningglory plant response rating): 100% | pest or weed control at 125 g/ha ([11]; post-emergence, Postemergence, scale 0 to 100 (0 no effect, 100 complete control), read-out: Surinam Grass plant response rating): 20% | pest or weed control at 500 g/ha ([11]; post-emergence, Postemergence, scale 0 to 100, read-out: Plant response rating, Surinam Grass): 80% | pest or weed control at 125 g/ha ([11]; pre-emergence, Preemergence, scale 0 to 100 (0 no effect, 100 complete control), read-out: Plant response rating, Surinam Grass): 10% | pest or weed control at 500 g/ha ([11]; pre-emergence, Preemergence, scale 0 to 100 (0 no effect, 100 complete control), read-out: Surinam Grass plant response rating): 60% | pest or weed control at 125 g/ha ([12]; 125 g ai/ha, scale 0 to 100 (0 no effect, 100 complete control), read-out: Blackgrass plant response rating): 60% | pest or weed control at 500 g/ha ([12]; 500 g ai/ha, scale 0 to 100, read-out: Plant response rating, Blackgrass): 70% | pest or weed control at 125 g/ha ([13]; 125 g ai/ha, scale 0 to 100 (0 no effect, 100 complete control), read-out: Oat, Wild plant response rating): 60% | pest or weed control at 500 g/ha ([13]; 500 g ai/ha, scale 0 to 100, read-out: Plant response rating, Oat, Wild): 60% | pest or weed control at 1000 g/ha [14]: 0% | plant injury at 1000 g/ha [15]: 0% | pest or weed control at 1000 g/ha [16]: 0% | pest or weed control at 1000 g/ha [17]: 0%
